Source: patent US10669272B2, “Substituted naphthyridinone compounds useful as T cell activators” (BRISTOL-MYERS SQUIBB COMPANY, priority 2018, dated 2020)
Read-outs that look alike come from different tables or passages of the source.

What was measured:
[1] = system: Human venous whole blood; assay: Human whole blood IFN-γ assay; type: cell-based; settings: human whole blood, anti-CD3 plus anti-CD28, 24 hours, 3 μM reference compound = 100% activation, read-out: INFg Whole Blood Normalized Agonist EC50;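 further: blood from healthy donors exposed to compound for 1 h before stimulation with anti-CD3 and anti-CD28 at 1 µg/mL each, IFN-γ quantified in supernatant by AlphaLISA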
Protocol: Human Whole Blood IFN-γ Assay
Human venous whole blood (22.5 μL per well), obtained from healthy donors, was pre-treated with compounds for one hour at 37° C. in a humidified 95% air/5% CO2 incubator. The blood was stimulated with 2.5 μL anti-human CD3 and anti-CD28 mAb at a final concentration of 1 μg/mL each for 24 hours at 37° C. IFN-γ in the supernatants was measured using AlphLISA kit (Cat # AL217).

[2] = molecular target: T1, human DGKα (Homo sapiens, UniProt P23743); assay: DGKα LIPGLO assay (extruded liposome substrate), in vitro DGK inhibition; type: biochemical; settings: DGKα liposome (LIPGLO) assay; read-out: DGKa LIPGLO IC50
T1 construct: TVMV protease cleavage site (C); Hexa-His (C); made in house; host or cells: Sf9 insect cells (baculovirus, Bac-to-Bac)

[3] = molecular target: T2, human DGKζ (Homo sapiens, UniProt Q13574); assay: DGKζ LIPGLO assay (extruded liposome substrate), in vitro DGK inhibition; type: biochemical; settings: DGKζ liposome (LIPGLO) assay; read-out: DGKz LIPGLO IC50
T2 construct: TVMV protease cleavage site (C); Hexa-His (C); made in house; host or cells: Sf9 insect cells (baculovirus, Bac-to-Bac)
T2 sequence (Q13574 with tags, fused parts or gaps isoform Q13574-4): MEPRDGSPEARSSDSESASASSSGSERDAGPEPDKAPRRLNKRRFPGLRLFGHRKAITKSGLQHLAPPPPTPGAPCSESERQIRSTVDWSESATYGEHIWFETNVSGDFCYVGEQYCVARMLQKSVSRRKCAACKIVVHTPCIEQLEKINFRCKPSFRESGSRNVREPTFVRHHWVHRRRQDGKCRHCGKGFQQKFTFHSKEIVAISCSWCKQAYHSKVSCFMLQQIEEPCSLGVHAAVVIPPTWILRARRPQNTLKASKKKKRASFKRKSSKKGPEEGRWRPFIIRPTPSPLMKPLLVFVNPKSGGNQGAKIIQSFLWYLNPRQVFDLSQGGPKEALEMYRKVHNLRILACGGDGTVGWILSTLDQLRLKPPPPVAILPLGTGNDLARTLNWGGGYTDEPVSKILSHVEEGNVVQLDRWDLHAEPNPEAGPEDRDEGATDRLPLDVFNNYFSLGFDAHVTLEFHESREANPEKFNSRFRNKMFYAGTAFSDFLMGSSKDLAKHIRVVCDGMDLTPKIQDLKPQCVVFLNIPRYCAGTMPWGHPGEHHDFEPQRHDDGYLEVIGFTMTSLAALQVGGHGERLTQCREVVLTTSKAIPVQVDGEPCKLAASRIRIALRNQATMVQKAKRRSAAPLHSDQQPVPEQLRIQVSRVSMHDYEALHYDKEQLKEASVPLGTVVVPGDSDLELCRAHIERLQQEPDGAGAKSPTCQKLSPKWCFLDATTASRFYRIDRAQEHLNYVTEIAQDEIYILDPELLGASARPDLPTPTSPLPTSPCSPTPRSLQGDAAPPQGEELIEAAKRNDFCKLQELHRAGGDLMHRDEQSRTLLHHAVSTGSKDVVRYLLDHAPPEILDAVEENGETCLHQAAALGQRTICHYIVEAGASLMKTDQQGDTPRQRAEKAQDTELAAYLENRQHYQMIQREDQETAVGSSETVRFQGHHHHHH

T1 sequence (P23743 with tags, fused parts or gaps): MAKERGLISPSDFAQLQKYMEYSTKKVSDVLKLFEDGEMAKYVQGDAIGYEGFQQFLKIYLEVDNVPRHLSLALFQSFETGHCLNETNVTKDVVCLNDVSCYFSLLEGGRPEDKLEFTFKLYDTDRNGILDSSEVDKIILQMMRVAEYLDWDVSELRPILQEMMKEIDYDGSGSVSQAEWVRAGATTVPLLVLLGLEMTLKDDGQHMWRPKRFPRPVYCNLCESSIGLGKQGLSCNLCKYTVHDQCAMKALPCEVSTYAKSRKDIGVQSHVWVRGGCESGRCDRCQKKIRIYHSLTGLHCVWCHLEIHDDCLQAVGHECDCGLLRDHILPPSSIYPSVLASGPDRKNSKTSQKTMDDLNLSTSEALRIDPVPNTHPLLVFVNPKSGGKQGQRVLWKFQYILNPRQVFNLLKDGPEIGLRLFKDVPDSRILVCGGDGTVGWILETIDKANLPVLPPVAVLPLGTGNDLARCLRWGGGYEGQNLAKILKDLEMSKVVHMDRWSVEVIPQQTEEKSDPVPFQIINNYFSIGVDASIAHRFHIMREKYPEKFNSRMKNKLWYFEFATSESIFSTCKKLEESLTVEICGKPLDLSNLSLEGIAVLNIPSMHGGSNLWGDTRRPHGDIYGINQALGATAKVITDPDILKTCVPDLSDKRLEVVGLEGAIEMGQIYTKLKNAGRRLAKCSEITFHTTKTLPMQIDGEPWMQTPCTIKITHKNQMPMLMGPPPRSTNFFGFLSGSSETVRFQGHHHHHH

Row | Structure (SMILES) | EC50 [1] | IC50 [2] | IC50 [3] | EC50 ([1]; Homo sapiens, 24 h)
1 | C[C@@H]1CN(c2c(C#N)c(=O)n(C)c3ccc(C#N)nc23)CCN1C(c1ccc(F)cc1)c1ccc(C(F)(F)F)cc1 (single isomer, unassigned) [Example 910] | 20 µM | 3 µM | 11 µM | 
2 | C[C@@H]1CN(c2c(C#N)c(=O)n(C)c3ccc(C#N)nc23)CCN1C(c1cccc(F)c1)c1ccc(F)cn1 (single isomer, unassigned) [Example 911] | 0.34 µM | 0.69 µM | 1.2 µM | 
3 | C[C@@H]1CN(c2c(C#N)c(=O)n(C)c3ccc(C#N)nc23)CCN1C(c1ccc(F)cc1)c1ccc(C(F)(F)F)cc1 (single isomer, unassigned) [Example 914] | 1.9 µM | 1.3 µM | 1.5 µM | 
4 | C[C@@H]1CN(c2c(C#N)c(=O)n(C)c3ccc(C#N)nc23)CCN1C(c1ccc(F)cc1)c1ccccn1 (single isomer, unassigned) [Example 919] | 1.4 µM | 0.98 µM | 5.8 µM | 
5 | C[C@@H]1CN(c2c(C#N)c(=O)n(C)c3ccc(C#N)nc23)CCN1C(c1ccc(F)cc1)c1ccc(C#N)cc1 (single isomer, unassigned) [Example 920] | 1.9 µM | 4.9 µM | 13 µM | 
6 | C[C@@H]1CN(c2c(C#N)c(=O)n(C)c3ccc(C#N)nc23)CCN1C(c1ccc(F)cc1)c1cccc(C(F)(F)F)n1 (single isomer, unassigned) [Example 921] | 1.5 µM | 23 µM | 3.1 µM | 
7 | Cc1ccc(C(c2cccc(F)c2)N2CCN(c3c(C#N)c(=O)n(C)c4ccc(C#N)nc34)C[C@H]2C)nc1 (single isomer, unassigned) [Example 923] |  | 5.5 µM | 1.9 µM | 0.8 µM
8 | C[C@@H]1CN(c2c(C#N)c(=O)n(C)c3ccc(C#N)nc23)CCN1C(c1ccc(F)cc1)c1ccc(C#N)cn1 (single isomer, unassigned) [Example 924] | 4 µM | 3.2 µM | 10 µM | 
9 | Cc1ccc(C(c2cccc(Cl)c2)N2CCN(c3c(C#N)c(=O)n(C)c4ccc(C#N)nc34)C[C@H]2C)nc1 (single isomer, unassigned) [Example 928] |  | 2.4 µM | 1.5 µM | 1.7 µM
10 | Cc1ccc(C(c2cccc(Cl)c2)N2CCN(c3c(C#N)c(=O)n(C)c4ccc(C#N)nc34)C[C@H]2C)nc1 (single isomer, unassigned) [Example 929] | 1.3 µM | 7.7 µM | 1.1 µM | 
11 | C[C@@H]1CN(c2c(C#N)c(=O)n(C)c3ccc(C#N)nc23)CCN1C(c1ccc(F)cc1)c1cccc2c1OC(F)(F)O2 (single isomer, unassigned) [Example 939] |  | 83 µM | 4 µM | 2.6 µM
12 | C[C@@H]1CN(c2c(C#N)c(=O)n(C)c3ccc(C#N)nc23)CCN1C(c1ccc(F)cc1)c1cccc2c1OC(F)(F)O2 (single isomer, unassigned) [Example 940] | 2.2 µM | 25 µM | 7.2 µM | 
13 | C[C@@H]1CN(c2c(C#N)c(=O)n(C)c3ccc(C#N)nc23)CCN1C(c1ccc(Cl)cc1)c1ccc2c(c1)OC(F)(F)O2 (single isomer, unassigned) [Example 941] |  | 4.3 µM | 20 µM | 20 µM
14 | C[C@@H]1CN(c2c(C#N)c(=O)n(C)c3ccc(C#N)nc23)CCN1C(c1ccc(Cl)cc1)c1ccc2c(c1)OC(F)(F)O2 (single isomer, unassigned) [Example 942] | 20 µM | 26 µM | 2.8 µM | 
15 | Cc1ccc(C(c2ccc(Cl)cc2)N2CCN(c3c(C#N)c(=O)n(C)c4ccc(C#N)nc34)C[C@H]2C)cc1 (single isomer, unassigned) [Example 944] | 6.7 µM | 37 µM | 41 µM | 
16 | Cc1ccc(C(c2ccc(Cl)cc2)N2CCN(c3c(C#N)c(=O)n(C)c4ccc(C#N)nc34)C[C@H]2C)cc1 (single isomer, unassigned) [Example 945] | 1.6 µM | 9.8 µM | 9.3 µM | 
17 | C[C@@H]1CN(c2c(C#N)c(=O)n(C)c3ccc(C#N)nc23)CCN1C(c1ccc(F)cc1)c1ccc(F)cc1F (single isomer, unassigned) [Example 947] |  | 2 µM | 0.27 µM | 0.34 µM
18 | C[C@@H]1CN(c2c(C#N)c(=O)n(C)c3ccc(C#N)nc23)CCN1C(c1cccc(F)c1)c1ccc(C(F)(F)F)cn1 (single isomer, unassigned) [Example 948] | 0.34 µM | 0.6 µM | 0.31 µM | 
19 | C[C@@H]1CN(c2c(C#N)c(=O)n(C)c3ccc(C#N)nc23)CCN1C(c1cccc(F)c1)c1ccc(C(F)(F)F)cn1 (single isomer, unassigned) [Example 949] | 20 µM | 6.6 µM | 1.1 µM | 
20 | CC(c1c(F)cccc1F)N1CCN(c2c(C#N)c(=O)n(C)c3ccc(C#N)nc23)C[C@H]1C (single isomer, unassigned) [Example 950] | 3.8 µM | 0.21 µM | 0.37 µM | 

Row | Structure (SMILES) | EC50 [1] | IC50 [2] | IC50 [3] | EC50 ([1]; Homo sapiens, 24 h)
21 | CC(c1c(F)cccc1F)N1CCN(c2c(C#N)c(=O)n(C)c3ccc(C#N)nc23)C[C@H]1C (single isomer, unassigned) [Example 951] | 20 µM | 3.7 µM | 9.8 µM | 
22 | CC(c1ccc(F)cc1)N1CCN(c2c(C#N)c(=O)n(C)c3ccc(C#N)nc23)C[C@H]1C (single isomer, unassigned) [Example 957] | 1.7 µM | 0.26 µM | 8.6 µM | 
23 | CC(c1ccc(OC(F)(F)F)cc1)N1CCN(c2c(C#N)c(=O)n(C)c3ccc(C#N)nc23)C[C@H]1C (single isomer, unassigned) [Example 958] |  | 0.49 µM | 28 µM | 20 µM
24 | CC(c1ccc(F)cc1)N1CCN(c2c(C#N)c(=O)n(C)c3ccc(C#N)nc23)C[C@H]1C (single isomer, unassigned) [Example 959] | 5.4 µM | 2.4 µM | 5.9 µM | 
25 | CC(c1ccc(C(F)(F)F)cc1)N1CCN(c2c(C#N)c(=O)n(C)c3ccc(C#N)nc23)C[C@H]1C (single isomer, unassigned) [Example 960] |  | 6.7 µM | 6.6 µM | 20 µM
26 | CC(c1ccc(OC(F)(F)F)cc1)N1CCN(c2c(C#N)c(=O)n(C)c3ccc(C#N)nc23)C[C@H]1C (single isomer, unassigned) [Example 962] | 20 µM | 1.5 µM | > 250 µM | 
27 | CC(c1ccccn1)N1CCN(c2c(C#N)c(=O)n(C)c3ccc(C#N)nc23)C[C@H]1C (single isomer, unassigned) [Example 963] |  | 1.4 µM | 180 µM | 20 µM
28 | CC(c1ccccc1C(F)(F)F)N1CCN(c2c(C#N)c(=O)n(C)c3ccc(C#N)nc23)C[C@H]1C (single isomer, unassigned) [Example 966] |  | 61 µM | > 250 µM | 20 µM
29 | CC(c1ccccc1C(F)(F)F)N1CCN(c2c(C#N)c(=O)n(C)c3ccc(C#N)nc23)C[C@H]1C (single isomer, unassigned) [Example 968] | 20 µM | > 250 µM | > 250 µM | 
30 | CC(c1ccc(F)cc1F)N1CCN(c2c(C#N)c(=O)n(C)c3ccc(C#N)nc23)C[C@H]1C (single isomer, unassigned) [Example 969] | 1.3 µM | 0.76 µM | 1.2 µM | 
31 | CC(c1ccc(F)cc1F)N1CCN(c2c(C#N)c(=O)n(C)c3ccc(C#N)nc23)C[C@H]1C (single isomer, unassigned) [Example 970] | 11 µM | 0.87 µM | 28 µM | 
32 | CC(c1ccc(Br)cc1)N1CCN(c2c(C#N)c(=O)n(C)c3ccc(C#N)nc23)C[C@H]1C (single isomer, unassigned) [Example 974] |  | 1.1 µM | 7.6 µM | 20 µM
33 | CC(c1ccc(Br)cc1)N1CCN(c2c(C#N)c(=O)n(C)c3ccc(C#N)nc23)C[C@H]1C (single isomer, unassigned) [Example 975] | 20 µM | 0.33 µM | 83 µM | 
34 | Cc1ccc(C)c(C(C)N2CCN(c3c(C#N)c(=O)n(C)c4ccc(C#N)nc34)C[C@H]2C)c1 (single isomer, unassigned) [Example 976] | 20 µM | 17 µM | 6.4 µM | 
35 | Cc1ccc(C)c(C(C)N2CCN(c3c(C#N)c(=O)n(C)c4ccc(C#N)nc34)C[C@H]2C)c1 (single isomer, unassigned) [Example 977] | 4.9 µM | 48 µM | 1 µM | 
36 | CC(c1ccc(Cl)cc1)N1CCN(c2c(C#N)c(=O)n(C)c3ccc(C#N)nc23)C[C@H]1C (single isomer, unassigned) [Example 979] |  | 0.91 µM | 55 µM | 20 µM
37 | COC(=O)c1cccc(C(C)N2CCN(c3c(C#N)c(=O)n(C)c4ccc(C#N)nc34)C[C@H]2C)c1 (single isomer, unassigned) [Example 982] |  | 8.1 µM | 1.7 µM | 20 µM
38 | COC(=O)c1cccc(C(C)N2CCN(c3c(C#N)c(=O)n(C)c4ccc(C#N)nc34)C[C@H]2C)c1 (single isomer, unassigned) [Example 983] | 13 µM | 3.5 µM | 7.2 µM | 
39 | C[C@@H]1CN(c2c(C#N)c(=O)n(C)c3ccc(C#N)nc23)CCN1C(c1ccc(F)cc1)c1cncn1C (single isomer, unassigned) [Example 1018] |  | 81 µM | 74 µM | 20 µM
40 | C[C@@H]1CN(c2c(C#N)c(=O)n(C)c3ccc(C#N)nc23)CCN1C(c1ccc(F)cc1)c1cncn1C (single isomer, unassigned) [Example 1019] | 20 µM | 32 µM | 5.9 µM | 
